Source: US6482851B1, “Synthesis of dysidiolide and uses thereof” (Sloan-Kettering Institute for Cancer Research, priority 1998, dated 2002)
Entries after “also recorded” stand apart in the source; their conditions may differ.

Legend:
Cdc2 = Cdc2 kinase activity on immunoprecipitates from treated MCF7 cells; type: cell-based, human; conditions: 50 μM, 24 hr
Experimental: (§1) Effect of a 24 hr treatment with 50 μM dysidiolide on the kinase activity of Cdk4, Cdk2 and Cdc2. Cdk were immunoprecipitated from MCF7 cell lysates obtained from cultures treated or not with dysidiolide for 24 hr. Histone H1 was used as substrate for Cdk2 and Cdc2, whereas GST-Rb was the substrate for Cdk4.
(§2) To further characterize the effects of dysidiolide on cell cycle control, experiments were conducted at the molecular level. As Cdc25s (A, B and C) are positive regulators of cyclin-dependent kinases (Cdk) (reviewed in Draetta and Eckstein, BBA 1332: M53-M63, 1997) inhibition of Cdc25 is expected to result in inhibition of Cdk activity. MCF7 cells were treated with 2 or 10 μM dysidiolide or with DMSO (controls) for 2 or 4 hr. Cell extracts were used to measure the steady-state levels of Cdc25 A and C, and Cdk activity. […] However, a decrease in the levels of Cdc25 C (but not on A) was clearly noticeable (FIG. 9B). In the next experiment MCF7 cells were treated for 24 hr with 50 μM dysidiolide or with DMSO (control) for 24 hr. […] On the other hand, at these more stringent conditions, inhibition of Cdk2, Cdk4 and Cdc2 protein kinase activities was observed (FIG. 10A and FIG. 10B).

Cdk4 = Cdk4 kinase activity on immunoprecipitates from treated MCF7 cells; type: cell-based, human; conditions: 50 μM, 24 hr
Experimental: as §1, §2

[1] = test system: TSU-Pr1, PC3 and DU145 human prostrate cancer cells; assay: apoptosis by FACS detection of fragmented DNA; type: cell-based; conditions: 24 hours
Experimental: Cells containing fragmented DNA content were detected as the M1 (subG1) region on DNA content plots.
Effects of dysidiolide at the cellular level. Dysidiolide was cytotoxic to several human tumor cell lines. […] (A) Human tumor cells were treated for 24 hours in the presence of various concentrations of dysidiolide or DMSO vehicle. Cells were analyzed by FACS and the percentage of cells bearing less than the 2 n DNA complement was determined. (B) Immunofluorescence micrographs of TSU-Pr1 human prostrate cancer cells untreated or treated for 6 hours with 2-50 μM dysidiolide.

[2] = test system: PC3, DU145 and MCF7 cells; assay: cell cycle distribution by DNA content histograms (FACS); type: cell-based, human
Experimental: Cells with 2n to 4n DNA content were distributed on a DNA histogram and estimations for the percentages of cells in G1(2n), S(2n<X<4N) and G2/M (4n) were calculated using Becton-Dickinson FACS analysis software.
A 20 mM stock solution of dysidiolide was prepared in dimethylsulfoxide (DMSO) and a pilot experiment was carried out to measure the effects of the drug on the viability (Trypan blue exclusion) and flow cytometric parameters of four human cancer cell lines: the prostate lines TSU-Pr1, PC3 and DU145, and the breast line, MCF7. Cultures were treated with 0, 2, 10 and 50 μM dysidiolide for 24 hr. Dysidiolide was cytotoxic to the four lines as evidenced by the loss of Trypan blue exclusion capability and by the appearance of sub-G1 fraction on flow cytometric (FACS) analysis (FIGS. 3 and 4A-D). […] (At 50 μM dysidiolide, the level of cell death was too high in TSU-Pr1 cells to fit a valid histogram (FIG. 5A)). These cell cycle changes are consistent with arrest prior to completion of the replicative (S) phase, or with cell death occurring preferentially in cells with a 4n DNA content (G2/M population).

[3] = test system: MCF7 human breast cancer cells; assay: BrdU pulse-chase S phase progression; type: cell-based
Experimental: Effect of 10 μM dysidiolide on cell cycle progression of S-phase MCF7 cells (BrdU-positive). MCF7 cultures were pulse-labeled with 10 μM BrdU for 30 min. Cultures were washed extensively with phosphate-buffered saline (PBS) solution and fresh media was added, supplemented or not with 10 μM dysidiolide. The final DMSO concentration of control and drug cultures was 0.05%. Cells were harvested at different times after the BrdU pulse and cells were stained for DNA content with propidium iodide, and for BrdU, with a monoclonal anti-BrdU antibody coupled to fluorescein. The progression of this group of cells through the cell cycle was followed by dual wavelength flow cytometry.
Effect of 50 μM dysidiolide on cell cycle progression of S-phase MCF7 cells. MCF7 cells were pulse-labeled for 30 min with BrdU, and chased for 24 hr in the presence or absence of 50 μM dysidiolide. BrdU versus DNA content plots are shown for cell cultures harvested just after the pulse (time 0, “0”), and after the chase with (“24+”) or without drug (“24−”)
To further analyze the cell cycle effects induced by dysidiolide, the effects of the drug on S phase progression were tested. For this purpose, a subset of cells was pulse-labeled with the thymidine analog, 5-bromodeoxyuridine (BrdU) for 30 min, and chased in the presence or absence of dysidiolide. The progression of this group of cells through the cell cycle was followed by flow cytometry, by analyzing the intensity of BrdU labeling and DNA content at two different wavelengths: red for propidium iodide stain (DNA content) and green for the detection of anti-BrdU antibodies coupled to fluorescein (Becton-Dickinson Immunocytometric Systems, San Jose, Calif.). The first experiment was conducted on MCF7 human breast cancer cells chased for varying time periods after a 30 min BrdU pulse, with or without 10 μM dysidiolide. After a 24 hr chase in the presence of the drug, fewer cells had reached G1 (FIG. 6). However, the effect was modest in intensity (approximately 45% less cells reached G1 in treated samples, compared with untreated controls) […]

## C=C(C)CCC[C@@]1(C)CCC[C@H]2C1=CC[C@H](C)[C@]2(C)C[C@H](O)C1=CC(=O)O[C@@H]1O (racemic) [dysidiolide]
Cdc2
  Cdc2 protein kinase activity: inhibition
Cdk4
  Cdk4 protein kinase activity: inhibition
[1]
  apoptosis: massive apoptosis; also recorded: induced apoptotic cell death
[2]; MCF7 breast cancer cell line
  cell cycle distribution: loss of the G2/M peak and accumulation of cells in G1
[2]; PC3, DU145 and MCF7 cells at higher doses of drug, 24 hr
  cell cycle distribution: loss of a G2/M (4 n peak)
[3]; 10 μM, 24 hr chase after 30 min BrdU pulse
  less cells reached G1 compared with untreated controls: approximately 45%
[3]; 50 μM, 24 hr chase
  cell cycle progression of BrdU-positive cells onto the next G1 phase: prevented cell cycle progression
[3]; 50 μM, 24 hr chase, BrdU-positive cells
  cells with intermediate DNA content (S phase), forced fit: approximately 90%
